Key:
NF-kB [1] = biological target: T1, NF-kB (Homo sapiens, UniProt P19838+Q04206); test: NF-kB activation after other types of stimulation (tumor necrosis factor alpha or viral infection) in different human cells; assay type: cell-based; conditions: stimulation by tumor necrosis factor alpha or viral infection, data not shown
T1 construct: endogenous in cells; host or cells: Jurkat (human T lymphoid cell line)
Description: (§1) Inhibition tests have been carried out in type T lymphoid human cells (Jurkat cell line), as well as in other human cell lines. NF-kB activation was stimulated with 12-o-tetradecanoyl-phorbol-13-acetate (TPA). 2-Cyclopenten-1-one was also effective in inhibiting NF-kB activation after other types of stimulation, including stimulation by tumor necrosis factor alpha or viral infection, and in different types of human cells (data not shown).

[2] = system: HSF (Heat Shock Transcription Factor); test: HSF activation in TPA-stimulated Jurkat cells, EMSA of whole-cell extracts; assay type: cell-based, human; conditions: then TPA 25 ng/ml, extracts after 3 hours; for activation of HSF (specificity): 500 uM for 1 hour, FIG. 1D
Description: (§2) The cells were prepared according to the method described in C. Amici et al. (Cancer Research 55, 4452-4457, 1995).
(§3) The cells were treated with 2-cyclopenten-1-one at different concentrations (125-1000 μM) for 1 hour and then were stimulated with TPA (25 ng/ml).
(§4) After 3 hours the whole-cell extracts were prepared and subjected to EMSA (Electrophoretic Mobility Shift Assay) as described for NF-kB in U. Zabel et al. (J. Biol. Chem. 266: 242, 1991) and HSF in C. Amici et al. (Cancer Res. 55: 4452, 1995), to determine NF-kB and HSF activation respectively.
The positions of the complex HSF-DNA (HSF), the HSF-DNA constitutive activity (CHBA) and the proteins-DNA non-specific interactions (ns) are indicated in FIG. 1B. The line “econtrol” indicates the non-TPA-stimulated cells as a control of non-activated NF-kB.
(§5) The cells were treated for 1 hour with the same concentration (500 uM) of: 2-cyclopenten-1-one, cyclopentanone or cyclopentene, and then were stimulated with TPA (25 ng/ml). C represents the non-TPA-stimulated control. After 3 hours the whole-cell extracts were prepared and subjected to EMSA to verify the activation of NF-kB (FIG. 1C) and of HSF (FIG. 1D) respectively.

NF-kB [3] = biological target: T1, NF-kB; test: TPA-induced NF-kB activation in Jurkat cells, EMSA of whole-cell extracts; assay type: cell-based; conditions: then TPA 25 ng/ml, extracts after 3 hours; for inhibition of TPA-induced NF-kB activation (specificity): 500 uM for 1 hour, FIG. 1C
Description: as §1
The effect of the treatment with 2-cyclopenten-1-one on NF-kB activation by TPA has been tested in Jurkat cells by using the procedures described hereinbelow and shown in FIG. 1.
as §2, §3, §4, §5

T1 sequence (P19838 1-433 limits assumed): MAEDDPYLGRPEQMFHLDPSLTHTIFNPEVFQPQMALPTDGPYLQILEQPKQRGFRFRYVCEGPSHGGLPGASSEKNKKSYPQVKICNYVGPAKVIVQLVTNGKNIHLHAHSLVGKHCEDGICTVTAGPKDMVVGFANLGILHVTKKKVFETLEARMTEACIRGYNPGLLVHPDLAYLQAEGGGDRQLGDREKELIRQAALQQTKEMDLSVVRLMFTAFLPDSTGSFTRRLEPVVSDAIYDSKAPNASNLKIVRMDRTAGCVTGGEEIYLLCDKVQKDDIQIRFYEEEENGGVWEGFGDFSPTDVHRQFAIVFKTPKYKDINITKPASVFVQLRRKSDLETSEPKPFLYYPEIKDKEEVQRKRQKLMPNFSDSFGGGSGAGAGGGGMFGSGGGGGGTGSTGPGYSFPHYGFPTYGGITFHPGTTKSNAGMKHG
T1 sequence (Q04206 whole entry): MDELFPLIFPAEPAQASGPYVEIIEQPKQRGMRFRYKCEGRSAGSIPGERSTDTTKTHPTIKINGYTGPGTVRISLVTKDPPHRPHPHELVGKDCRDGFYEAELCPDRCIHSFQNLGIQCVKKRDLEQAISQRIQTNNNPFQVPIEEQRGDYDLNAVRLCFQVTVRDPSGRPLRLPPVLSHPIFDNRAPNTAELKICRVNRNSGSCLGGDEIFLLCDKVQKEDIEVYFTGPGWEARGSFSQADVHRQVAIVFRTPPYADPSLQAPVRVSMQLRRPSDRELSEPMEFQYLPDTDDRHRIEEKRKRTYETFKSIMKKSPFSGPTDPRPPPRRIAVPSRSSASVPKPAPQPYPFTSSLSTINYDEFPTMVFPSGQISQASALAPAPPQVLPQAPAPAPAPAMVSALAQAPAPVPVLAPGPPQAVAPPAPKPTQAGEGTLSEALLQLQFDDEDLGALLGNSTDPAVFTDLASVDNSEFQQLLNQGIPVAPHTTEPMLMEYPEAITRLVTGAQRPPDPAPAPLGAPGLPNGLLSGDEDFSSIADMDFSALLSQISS

Row | SMILES | inhibition of NF-kB activation after other types of stimulation (NF-kB [1]) | concentration from which activation of HSF is evident ([2]; 125-1000 μM for 1 hour, FIG. 1B) [µM] | inhibition of NF-kB activation by TPA (NF-kB [3]; 125 uM for 1 hour, FIG. 1A) | inhibition of TPA-induced NF-kB activation (specificity) (NF-kB [3]) | NF-kB band (NF-kB-DNA complex) in EMSA (NF-kB [3]; 500 um for 1 hour, FIG. 1A) | activation of HSF (specificity) [2]
1 | O=C1C=CCC1 [2-cyclopenten-1-one] | effective | ≥ 125 | able to inhibit | inhibits | absent | –
2 | O=C1CCCC1 [cyclopentanone, reference compound] | – | – | – | do not inhibit | – | do not activate
3 | C1=CCCC1 [cyclopentene, reference compound] | – | – | – | do not inhibit | – | do not activate
